Measured values published in publication PMC10196118, “Evidence for broad cross-reactivity of the SARS-CoV-2 NSP12-directed CD4^+ T-cell response with pre-primed responses directed against common cold coronaviruses” (Frontiers in Immunology, 2023).

Legend:
11 DRB1-HLA molecules = assay: In vitro HLA class II binding, number of DRB1 alleles bound; design: species or system human; settings: number of the 11 DRB1-HLA molecules tested bound with an affinity of 1,000 nM or better (in vitro)
[1] = test system: pre-cultured PBMCs (NSP12-specific T cells); assay: IFN-γ ELISpot with single 15-mer peptides after 11–13 days in vitro peptide-pool T-cell expansion; format: cell-based, human; settings: single NSP12 15-mer peptides
CD4+ T cells = assay: Peptide-specific CD4+ T-cell response: IFN-γ ELISpot validated by intracellular cytokine staining after in vitro expansion; format: cell-based, human; settings: COVID-19 patients (acute or resolved, n = 27); peptide 10 µg/ml; share of individuals with a positive response
HLA DRB1*01:01 = HLA DRB1*01:01 (Homo sapiens, UniProt P01903+P01911, A100R/D57E/F55L/F60I/F76Y/I96L/L162R/M171V/P40L/Q125E/R42F/V115G/Y59C); assay: biochemical; format: binding; settings: binder threshold 1,000 nM, read-out: In vitro (IC50 nM) DRB1*01:01
HLA DRB1*03:01 = HLA DRB1*03:01 (Homo sapiens, UniProt P01903+P01911, A100K/A102G/A103R/A169T/F55Y/I96L/K41T/L162R/M171V/P40S/Q125H/Q178H/Q39Y/R42S/S66N/T106N/T262R/W38E/Y61H); assay: biochemical; format: binding; settings: binder threshold 1,000 nM, read-out: In vitro (IC50 nM) DRB1*03:01
HLA DRB1*03:01, sequence (P01903 26-254, other chains not shown): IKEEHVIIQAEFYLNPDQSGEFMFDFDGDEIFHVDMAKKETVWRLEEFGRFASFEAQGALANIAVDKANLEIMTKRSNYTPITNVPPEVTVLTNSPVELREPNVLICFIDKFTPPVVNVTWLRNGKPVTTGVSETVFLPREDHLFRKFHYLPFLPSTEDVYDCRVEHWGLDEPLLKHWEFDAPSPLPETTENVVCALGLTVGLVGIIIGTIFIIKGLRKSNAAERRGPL
HLA DRB1*04:01 = HLA DRB1*04:01 (Homo sapiens, UniProt P01903+P01911, A100K/A169T/F76Y/I96L/K127E/L162R/M171V/N62H/P40V/Q125Y/R42H/S133A/S149N/S66Y/V115G/V209L/W38E); assay: biochemical; format: binding; settings: binder threshold 1,000 nM, read-out: In vitro (IC50 nM) DRB1*04:01
HLA DRB1*04:05 = HLA DRB1*04:05 (Homo sapiens, UniProt P01903+P01911, A100R/A169T/D86S/F76Y/I96L/K127E/L162R/M171V/N62H/P40V/Q125Y/R42H/S133A/S149N/S66Y/V115G/V209L/W38E); assay: biochemical; format: binding; settings: binder threshold 1,000 nM, read-out: In vitro (IC50 nM) DRB1*04:05
HLA DRB1*07:01 = HLA DRB1*07:01 (Homo sapiens, UniProt P01903+P01911, A100R/A102G/A103Q/D57E/D86V/E43K/F76Y/K127E/L162R/M171V/P40G/Q125H/Q99D/R33Q/R42Y/R54Q/S133A/S66F/T210M/V115G/Y107V/Y59L/Y89S); assay: biochemical; format: binding; settings: binder threshold 1,000 nM, read-out: In vitro (IC50 nM) DRB1*07:01
HLA DRB1*08:02 = HLA DRB1*08:02 (Homo sapiens, UniProt P01903+P01911, A100R/A103L/A169T/F76Y/H45Y/I96F/K41T/L162R/M171V/P40S/Q125H/Q178H/Q39Y/Q99D/R218S/R42G/S66Y/V115G/W38E); assay: biochemical; format: binding; settings: binder threshold 1,000 nM, read-out: In vitro (IC50 nM) DRB1*08:02
HLA DRB1*09:01 = HLA DRB1*09:01 (Homo sapiens, UniProt P01903+P01911, A100R/A103E/D57H/D86V/F55Y/F60I/F76Y/I96F/K127E/L162R/M171V/P40D/Q125H/Q99R/R33Q/R42F/S133A/S66N/T210M/V115G/W38K/Y107V/Y59G/Y89S); assay: biochemical; format: binding; settings: binder threshold 1,000 nM, read-out: In vitro (IC50 nM) DRB1*09:01
HLA DRB1*11:01 = HLA DRB1*11:01 (Homo sapiens, UniProt P01903+P01911, A100R/A169T/A87E/I96F/K41T/L162R/M171V/P40S/Q125H/Q178H/Q39Y/Q99D/R42S/S66Y/T262R/V115G/W38E); assay: biochemical; format: binding; settings: binder threshold 1,000 nM, read-out: In vitro (IC50 nM) DRB1*11:01
HLA DRB1*11:01, sequence (P01903 26-254, other chains not shown): as above
HLA DRB1*12:01 = HLA DRB1*12:01 (Homo sapiens, UniProt P01903+P01911, A100R/A169T/D57E/D86V/F55L/H45Y/K41T/L162R/M171V/P40S/Q125H/Q178H/Q39Y/Q99D/R42G/S66L/T262R/V114A/V67L/W38E/Y59H/Y61H/Y89S); assay: biochemical; format: binding; settings: binder threshold 1,000 nM, read-out: In vitro (IC50 nM) DRB1*12:01
HLA DRB1*13:02 = HLA DRB1*13:02 (Homo sapiens, UniProt P01903+P01911, A100E/A169T/K41T/L162R/M171V/P40S/Q125H/Q178H/Q39Y/Q99D/R42S/S66N/T262R/V115G/W38E/Y61H); assay: biochemical; format: binding; settings: binder threshold 1,000 nM, read-out: In vitro (IC50 nM) DRB1*13:02
HLA DRB1*13:02, sequence (P01903 26-254 limits assumed, other chains not shown): as the sequence (P01903 26-254, other chains not shown) above
HLA DRB1*15:01 = HLA DRB1*15:01 (Homo sapiens, UniProt P01903+P01911); assay: biochemical; format: binding; settings: binder threshold 1,000 nM, read-out: In vitro (IC50 nM) DRB1*15:01

| SMILES | IC50 (HLA DRB1*01:01) | IC50 (HLA DRB1*03:01) | IC50 (HLA DRB1*04:01) | IC50 (HLA DRB1*04:05) | IC50 (HLA DRB1*07:01) | IC50 (HLA DRB1*08:02) | IC50 (HLA DRB1*09:01) | IC50 (HLA DRB1*11:01) | IC50 (HLA DRB1*12:01) | IC50 (HLA DRB1*13:02) | IC50 (HLA DRB1*15:01) | further results |
| --- | --- | --- | --- | --- | --- | --- | --- | --- | --- | --- | --- | --- |
| CC(C)C[C@H](NC(=O)[C@H](CCCNC(=N)N)NC(=O)[C@H](Cc1ccc(O)cc1)NC(=O)[C@H](Cc1ccccc1)NC(=O)[C@H](CCCNC(=N)N)NC(=O)[C@H](Cc1c[nH]cn1)NC(=O)[C@H](CO)NC(=O)[C@H](CC(C)C)NC(=O)[C@H](CO)NC(=O)[C@@H](N)CS)C(=O)N[C@@H](C)C(=O)N[C@@H](CC(N)=O)C(=O)N[C@@H](CCC(=O)O)C(=O)N[C@@H](CS)C(=O)N[C@@H](C)C(=O)O [NSP12_130] |  |  |  |  |  |  |  |  |  |  |  | Alleles bound (11 DRB1-HLA molecules): 8; peptide-specific response, donor HH-N12-18, post COVID-19 ([1]; donor HH-N12-18, sample post COVID-19): 0; peptide-specific response, donor HH-N12-18, pre COVID-19 ([1]; donor HH-N12-18, sample pre COVID-19): 0; peptide-specific response, donor HH-N12-34, post COVID-19 ([1]; donor HH-N12-34, sample post COVID-19): 0.031; peptide-specific response, donor HH-N12-34, pre COVID-19 ([1]; donor HH-N12-34, sample pre COVID-19): 0.09; peptide-specific response, donor HH-N12-35, post COVID-19 ([1]; donor HH-N12-35, sample post COVID-19): 0; peptide-specific response, donor HH-N12-35, pre COVID-19 ([1]; donor HH-N12-35, sample pre COVID-19): 0; peptide-specific response, donor HH-N12-36, post COVID-19 ([1]; donor HH-N12-36, sample post COVID-19): 0.06; peptide-specific response, donor HH-N12-36, pre COVID-19 ([1]; donor HH-N12-36, sample pre COVID-19): 0; peptide-specific response, donor HH-N12-37, post COVID-19 ([1]; donor HH-N12-37, sample post COVID-19): 0.032; peptide-specific response, donor HH-N12-37, pre COVID-19 ([1]; donor HH-N12-37, sample pre COVID-19): 0; RF (response frequency), CD4+ T-cell response (CD4+ T cells): 26% |
| CC[C@H](C)[C@H](NC(=O)[C@@H](NC(=O)[C@@H]1CCCN1C(=O)[C@@H](NC(=O)[C@@H](NC(=O)[C@H](CC(N)=O)NC(=O)[C@H](CCCNC(=N)N)NC(=O)[C@H](CCCCN)NC(=O)[C@@H](NC(=O)[C@H](Cc1ccc(O)cc1)NC(=O)[C@H](C)NC(=O)[C@H](Cc1ccccc1)NC(=O)[C@H](CC(C)C)NC(=O)[C@H](C)N)[C@@H](C)O)C(C)C)[C@@H](C)CC)[C@@H](C)O)C(=O)N[C@H](C(=O)O)[C@@H](C)O [NSP12_106] | 7360 nM | 709 nM | 3660 nM | 13000 nM | 1.6 nM | 190 nM | 52 nM | 6.6 nM | 756 nM | 32 nM | 770 nM |  |
| CC(C)C[C@H](NC(=O)[C@H](CCCNC(=N)N)NC(=O)[C@H](Cc1ccc(O)cc1)NC(=O)[C@H](Cc1ccccc1)NC(=O)[C@@H](N)CCCNC(=N)N)C(=O)N[C@@H](C)C(=O)N[C@@H](CC(N)=O)C(=O)N[C@@H](CCC(=O)O)C(=O)N[C@@H](CS)C(=O)N[C@@H](C)C(=O)N[C@@H](CCC(N)=O)C(=O)N[C@H](C(=O)N[C@@H](CC(C)C)C(=O)N[C@@H](CO)C(=O)N[C@@H](CCC(=O)O)C(=O)O)C(C)C [NSP12_131] | 53 nM | 8410 nM | 27 nM | 270 nM | 279 nM | 2350 nM | 48 nM | 367 nM | 6320 nM | 23800 nM | 611 nM |  |
